Key:
Assay in all cases: microbe, parasite or virus in culture
E. coli ATCC 25922 = conditions: n = 2
Protocol: A positive control of a row of just the bacteria and a negative control of only the medium were included for every plate tested.
The compounds along with standard antibiotics were serially diluted 2-fold across the 96-well plates. […] A sample of each culture was then diluted 40-fold in fresh MH broth (in presence and absence of Tween) and incubated at 37°C for 2 to 3 h.
For experiments in the presence of surfactant, 2% beractant (25 mg/ml) was added to the mid-log-phase cultures and mixed gently and added to all the 96-well plates. For experiments in the presence of serum, a mixture of 50% of human serum along with 50% MHB was prepared and used throughout the experiment.

K. pneumoniae ATCC 13883 = conditions: Klebsiella pneumoniae, n = 2
How it was run: (§1)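 Broth microdilution: 2-fold serial dilutions of test compounds plus reference antibiotics; inoculum = culture diluted 40x in MH broth ±Tween, 37°C, 2–3 h. Controls per plate: bacteria alone (positive), medium alone (negative).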

P. aeruginosa ATCC 10145 = conditions: Pseudomonas aeruginosa, n = 2
How it was run: as §1

A. baumannii ATCC 19606 = conditions: Acinetobacter baumannii, n = 2
How it was run: as §1

Measured: MIC

Cc1onc(-c2ccccc2)c1C(=O)N[C@@H]1C(=O)N2[C@@H]1SC(C)(C)[C@@H]2C(=O)O [Oxacillin, oxacillin]
> 64 µg/mL: E. coli ATCC 25922; Corning NBS plate, MHB +0.002% T80, no further additive | E. coli ATCC 25922; Corning NBS plate, MHB −T80, no additive | E. coli ATCC 25922; Corning PS plate, MHB +0.002% T80, no further additive | E. coli ATCC 25922; Corning PS plate, MHB −T80, no additive | E. coli ATCC 25922; Corning TC plate, MHB +0.002% T80, no further additive | E. coli ATCC 25922; Corning TC plate, MHB −T80, no additive | E. coli ATCC 25922; Escherichia coli, ATCC25922, 24 h, Corning NBS, MH + 2% LHB, 2% LS | E. coli ATCC 25922; Escherichia coli, ATCC25922, 24 h, Corning NBS, MH + 2% LHB, 50% HS | E. coli ATCC 25922; Escherichia coli, ATCC25922, 24 h, Corning NBS, MH + 2% LHB, no additive | E. coli ATCC 25922; Escherichia coli, ATCC25922, 24 h, Corning NBS, MH + T80, 2% LS | E. coli ATCC 25922; Escherichia coli, ATCC25922, 24 h, Corning NBS, MH + T80, 50% HS | E. coli ATCC 25922; Escherichia coli, ATCC25922, 24 h, Corning PS, MH + 2% LHB, 2% LS | E. coli ATCC 25922; Escherichia coli, ATCC25922, 24 h, Corning PS, MH + 2% LHB, 50% HS | E. coli ATCC 25922; Escherichia coli, ATCC25922, 24 h, Corning PS, MH + 2% LHB, no additive | E. coli ATCC 25922; Escherichia coli, ATCC25922, 24 h, Corning PS, MH + T80, 2% LS | E. coli ATCC 25922; Escherichia coli, ATCC25922, 24 h, Corning PS, MH + T80, 50% HS | E. coli ATCC 25922; Escherichia coli, ATCC25922, 24 h, Corning TC, MH + 2% LHB, 2% LS | E. coli ATCC 25922; Escherichia coli, ATCC25922, 24 h, Corning TC, MH + 2% LHB, 50% HS | E. coli ATCC 25922; Escherichia coli, ATCC25922, 24 h, Corning TC, MH + 2% LHB, no additive | E. coli ATCC 25922; Escherichia coli, ATCC25922, 24 h, Corning TC, MH + T80, 2% LS | E. coli ATCC 25922; Escherichia coli, ATCC25922, 24 h, Corning TC, MH + T80, 50% HS | E. coli ATCC 25922; Escherichia coli, ATCC25922, 24 h, Trek PS, MH + 2% LHB, 2% LS | E. coli ATCC 25922; Escherichia coli, ATCC25922, 24 h, Trek PS, MH + 2% LHB, 50% HS | E. coli ATCC 25922; Escherichia coli, ATCC25922, 24 h, Trek PS, MH + 2% LHB, no additive | E. coli ATCC 25922; Escherichia coli, ATCC25922, 24 h, Trek PS, MH + T80, 2% LS | E. coli ATCC 25922; Escherichia coli, ATCC25922, 24 h, Trek PS, MH + T80, 50% HS | E. coli ATCC 25922; Escherichia coli, ATCC25922, Corning NBS plate, MHB +0.002% T80, no further additive | E. coli ATCC 25922; Escherichia coli, ATCC25922, Corning NBS plate, MHB −T80, no additive | E. coli ATCC 25922; Escherichia coli, ATCC25922, Corning NBS, MH, 2% LS | E. coli ATCC 25922; Escherichia coli, ATCC25922, Corning NBS, MH, 50% HS | E. coli ATCC 25922; Escherichia coli, ATCC25922, Corning PS plate, MHB +0.002% T80, no further additive | E. coli ATCC 25922; Escherichia coli, ATCC25922, Corning PS plate, MHB −T80, no additive | E. coli ATCC 25922; Escherichia coli, ATCC25922, Corning PS, MH, 2% LS | E. coli ATCC 25922; Escherichia coli, ATCC25922, Corning PS, MH, 50% HS | E. coli ATCC 25922; Escherichia coli, ATCC25922, Corning TC plate, MHB +0.002% T80, no further additive | E. coli ATCC 25922; Escherichia coli, ATCC25922, Corning TC plate, MHB −T80, no additive | E. coli ATCC 25922; Escherichia coli, ATCC25922, Corning TC, MH, 2% LS | E. coli ATCC 25922; Escherichia coli, ATCC25922, Corning TC, MH, 50% HS | E. coli ATCC 25922; Escherichia coli, ATCC25922, Nunc PS plate, MHB +0.002% T80 | E. coli ATCC 25922; Escherichia coli, ATCC25922, Nunc PS plate, MHB −T80 | E. coli ATCC 25922; Escherichia coli, ATCC25922, Nunc U TC plate, MHB +0.002% T80 | E. coli ATCC 25922; Escherichia coli, ATCC25922, Nunc U TC plate, MHB −T80 | E. coli ATCC 25922; Escherichia coli, ATCC25922, Nunc flat TC plate, MHB +0.002% T80 | E. coli ATCC 25922; Escherichia coli, ATCC25922, Nunc flat TC plate, MHB −T80 | E. coli ATCC 25922; Escherichia coli, ATCC25922, Trek PS plate, MHB +0.002% T80, no further additive | E. coli ATCC 25922; Escherichia coli, ATCC25922, Trek PS plate, MHB −T80, no additive | E. coli ATCC 25922; Escherichia coli, ATCC25922, Trek PS, MH, 2% LS | E. coli ATCC 25922; Escherichia coli, ATCC25922, Trek PS, MH, 50% HS | K. pneumoniae ATCC 13883; ATCC13883, Corning NBS, MHB +T80 | K. pneumoniae ATCC 13883; ATCC13883, Corning NBS, MHB -T80 | K. pneumoniae ATCC 13883; ATCC13883, Corning PS, MHB +T80 | K. pneumoniae ATCC 13883; ATCC13883, Corning PS, MHB -T80 | K. pneumoniae ATCC 13883; ATCC13883, Corning TC, MHB +T80 | K. pneumoniae ATCC 13883; ATCC13883, Corning TC, MHB -T80 | P. aeruginosa ATCC 10145; ATCC10145, Corning NBS, MHB +T80 | P. aeruginosa ATCC 10145; ATCC10145, Corning NBS, MHB -T80 | P. aeruginosa ATCC 10145; ATCC10145, Corning PS, MHB +T80 | P. aeruginosa ATCC 10145; ATCC10145, Corning PS, MHB -T80 | P. aeruginosa ATCC 10145; ATCC10145, Corning TC, MHB +T80 | P. aeruginosa ATCC 10145; ATCC10145, Corning TC, MHB -T80 | A. baumannii ATCC 19606; ATCC19606, Corning NBS, MHB +T80 | A. baumannii ATCC 19606; ATCC19606, Corning NBS, MHB -T80 | A. baumannii ATCC 19606; ATCC19606, Corning PS, MHB +T80 | A. baumannii ATCC 19606; ATCC19606, Corning PS, MHB -T80 | A. baumannii ATCC 19606; ATCC19606, Corning TC, MHB +T80 | A. baumannii ATCC 19606; ATCC19606, Corning TC, MHB -T80
